Several values for one entry are separate records, joined by “and”; a condition that tells them apart may be missing. Equal values may be shown once. Where no end group is shown, it is not given here.
Tested on: Staphylococcus aureus
Assay: Bactericidal activity in milk, percent bacterial survival (Example 1, Table 1)
Assay type: cell-based
Settings: for % survival 2 hr: initial viable counts 5 × 10^7 cfu/ml
Description: All tests in the following examples were performed at 37° C. The efficacy of the enhanced broad range bactericides was determined by assaying bactericidal activity as measured by the percent bacterial survival after treatment with the bactericide. Generally, after incubation of a 10^7 cell per ml suspension of target species with the novel bactericide for specified lengths of time, bacteria were collected by centrifugation for 2 minutes. The bacterial pellet was washed free of the bactericide with a rescue buffer, termed herein Phage buffer (50 mM Tris-HCl buffer pH 7.8, 1 mM MgSO4, 4 mM CaCl2, 0.1M NaCl, and 0.1% gelatin), resuspended and serially diluted into Phage buffer, and 100 μl of the suspended bacteria were spread on nutrient agar plates. Surviving bacteria were determined by scoring colony forming units (CFU) after incubation for 24-48 hours at 37° C. An effective bactericide according to this invention is one which allows less than 0.1% of the initial viable count of the bacteria to survive.
Staphylococcus aureus cells were suspended and incubated in milk at 37° C. for 2 hours with various concentrations of lysostaphin, nisin, or a combination of lysostaphin and nisin in the milk. The bactericidal efficacy of the bactericides was estimated by determining the percent survival of bacteria as described above.

Substance	% survival 2 hr (Lysostaphin 1.0 μg/ml, Nisin 0, milk, 37° C.)	log reduction in viable cells (Lysostaphin alone 1.0 μg/ml in milk)	% survival 2 hr (Nisin 0.2 μg/ml, Lysostaphin 0, milk, 37° C.)	% survival 2 hr (Nisin 0.5 μg/ml, Lysostaphin 0, milk, 37° C.)	% survival 2 hr (Nisin 1.0 μg/ml, Lysostaphin 0, milk, 37° C.)	% survival 2 hr (Nisin 2.0 μg/ml, Lysostaphin 0, milk, 37° C.)	% survival 2 hr (Nisin 4.0 μg/ml, Lysostaphin 0, milk, 37° C.)	bactericidal activity in milk (in words) (milk, 37° C.)
Lysostaphin	< 10^-3%	more than a five log reduction	–	–	–	–	–	–
Nisin (ITSISLCTPGCKTGALMGCNMKTATCHCSIHVSK; also: lantibiotic nisin-A: lanthionine rings and dehydrated residues, places not given here; UniProt P13068 24-57, looked up) [lanthionine containing peptide bacteriocin produced by Streptococcus lactis]	–	–	45%	33%	9%	2.5% and 0.5%	0.5%	little practical bactericidal activity

Source: patent US4980163A, “Novel bacteriocin compositions for use as enhanced broad range bactericides and methods of preventing and treating microbial infection” (Public Health Research Institute of the City of New York, priority 1989, dated 1990)
